Read-outs that look alike come from different tables or passages of the source.
Tested on: murine macrophage J774.A1 cells
Assay: Nitric oxide (NO) inhibition in LPS-stimulated J774.A1 cells (Griess)
Type: cell-based
Procedure: Murine monocytes (J774.A1 cells) produce measurable quantities of NO on exposure to LPS and provide a model for the rapid assessment of compounds to neutralize LPS activity. […] In all experiments, Polymyxin B (PMB), a decapeptide antibiotic, known to bind and neutralize LPS,^29;47;48 is used as a reference compound.
Nitric oxide production is measured as total nitrite in murine macrophage J774.A1 cells using the Griess reagent system.^53;54 Murine macrophage J774.A1 cells are grown in RPMI-1640 cell-culture medium containing L-glutamine and sodium bicarbonate and supplemented with 10% fetal bovine serum, 1% L-glutamine-penicillin-streptomycin solution, and 200 μg/ml L-arginine at 37° C. in a 5% CO2 atmosphere. Cells are plated at ˜2×10^6/ml in a volume of 40 μl/well, in 384 well, flat-bottomed, cell culture treated microtiter plates until confluency and subsequently stimulated with 100 ng/ml lipopolysaccharide (LPS). Concurrent to LPS stimulation, serially diluted concentrations of test compounds are added to the cell medium and left to incubate overnight for 16 h. Polymyxin B is used as reference compound in each plate. Positive—(LPS stimulation only) and negative-controls (J774.A1 medium only) are included in each experiment. Nitrite concentrations are measured adding 30 μl of supernatant to equal volumes of Griess reagents (50 μl/well; 0.1% NED solution in ddH2O and 1% sulfanilamide, 5% phosphoric acid solution in ddH2O) and incubating for 15 minutes at room temperature in the dark. Absorbance at 535 nm is measured using a Molecular Devices Spectramax M2 multifunction plate reader (Sunnyvale, Calif.). Nitrite concentrations are interpolated from standard curves obtained from serially diluted sodium nitrite standards.

## CCCCCCCCCCCCCCCCCC(=O)NCCCCC(N)C(=O)NCCCNCCCCNCCCN [Compound 8, D-Lys-ε-(stearoyl)-N^1-spermine]
J774.A1 cells, 100 ng/ml LPS, 16 h, Tables 1-3, read-out: NO IC50
  IC50: 1.98 µM
Table 7 focused library, NO inhibition, read-out: NO
  IC50: 10.3 µM
In words
  prevention of LPS-induced NO release from J774.A1 macrophages: high activity
